Results from US12509446B2, “FYN and VEGFR2 kinase inhibitors” (ROTTAPHARM BIOTECH S.R.L., priority 2019, dated 2025).
Where two headings read alike, the source gives them in different places.

Tests used:
COX2 = assay: Gene expression in rat articular chondrocytes under IL-1β stimulation, COX2; format: cell-based; parameters: key to COX2 gene expression, no effect: ne: no effect; details: 24 h
NF-kB = assay: Gene reporter (GR) assay, NF-kB activation after TNFα in JB6 Cl 41-5a (P+) cells; format: cell-based, murine; details: TNFα 2 ng/ml, non toxic concentrations, read-out: Gene reporter (GR) inhibition IC50
Outline: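 TNFα (2 ng/ml, 4 h) stimulation followed 1 h compound pre-treatment in NF-kB-luciferase-transfected mouse JB6 (P+) epithelial cells. Reporter luminescence and cell viability were read together, each condition in quadruplicate.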

IL-6 = assay: Gene expression in rat articular chondrocytes under IL-1β stimulation, IL-6; format: cell-based; details: for IL-6 gene expression, percentage of inhibitory effect at the highest non toxic concentration: 6 h
[1] = test system: bovine nasal septum cartilage; assay: Inhibition of cartilage degradation (GAG release) induced by IL-1α in a bovine in vitro model; format: cell-based; parameters: key to Bovine cartilage degradation induced by IL-1α, no effect: ne: no effect
Outline: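 Cartilage punches (2 mm) from an 8-month-old male bovine nasal septum were cultured 48 h, then stimulated 48 h with IL-1α […] ± compound in DMEM + 0.1% BSA. Compound doses were set from 48 h rat chondrocyte toxicity. GAG in medium and papain-digested tissue was measured by DMB absorbance at 590 nm; degradation = medium GAG/total GAG × 100.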

IL-1β = assay: Gene expression in rat articular chondrocytes under IL-1β stimulation, IL-1β; format: cell-based; details: for IL-1β gene expression, percentage of inhibitory effect at the highest non toxic concentration: 6 h; for IC50: Rattus norvegicus, Chondrocyte, 6 h incubation
Outline: (§1)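 Primary rat chondrocytes were synchronized in DMEM GlutaMAX I 0.4% 10 days after plating, then co-treated with test compounds (top concentration set by toxicity) and cytokine at 2 ng/ml. TaqMan RT-qPCR relative to 18S was read at 6 h for IL-1β and ADAMTS-5 and at 24 h for MMP3 and MMP13.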

[2] = test system: rat primary articular chondrocytes
Description: (§2) Purified chondrocytes were resuspended in DMEM glutaMAX 10% and plated in a 96X well plate for toxicity analysis and in a 6X well plate for gene expression analysis.
(§3) For toxicity analysis cells were then treated with the different compounds for 24 and 48 h. At the end of the incubation time, the medium was removed and was substituted with a mixture 10:1 of DMEM glutaMAX 10%—MTT (2 mg/ml) for 1 h at 37° C. in the cell incubator. After this incubation, the precipitated salt was dissolved with 100 μl of DMSO and the plate was read at 540 nm. The toxicity analysis were performed to decide the maximal non toxic concentration of each compound used in the gene expression assay.

ADAMTS-5 = assay: Gene expression in rat articular chondrocytes under IL-1β stimulation, ADAMTS-5; format: cell-based; details: for ADAMTS-5 gene expression, percentage of inhibitory effect at the highest non toxic concentration: 6 h; for IC50: Rattus norvegicus, Chondrocyte, 6 h incubation
Outline: as §1

Fyn = Fyn (Homo sapiens (Human), UniProt P06241); assay: Z′-LYTE in vitro Fyn kinase activity assay; format: biochemical; details: ATP 50 μM; read-out: FYN KINASE INHIBITION IC50
Sequence of Fyn (P06241 whole entry): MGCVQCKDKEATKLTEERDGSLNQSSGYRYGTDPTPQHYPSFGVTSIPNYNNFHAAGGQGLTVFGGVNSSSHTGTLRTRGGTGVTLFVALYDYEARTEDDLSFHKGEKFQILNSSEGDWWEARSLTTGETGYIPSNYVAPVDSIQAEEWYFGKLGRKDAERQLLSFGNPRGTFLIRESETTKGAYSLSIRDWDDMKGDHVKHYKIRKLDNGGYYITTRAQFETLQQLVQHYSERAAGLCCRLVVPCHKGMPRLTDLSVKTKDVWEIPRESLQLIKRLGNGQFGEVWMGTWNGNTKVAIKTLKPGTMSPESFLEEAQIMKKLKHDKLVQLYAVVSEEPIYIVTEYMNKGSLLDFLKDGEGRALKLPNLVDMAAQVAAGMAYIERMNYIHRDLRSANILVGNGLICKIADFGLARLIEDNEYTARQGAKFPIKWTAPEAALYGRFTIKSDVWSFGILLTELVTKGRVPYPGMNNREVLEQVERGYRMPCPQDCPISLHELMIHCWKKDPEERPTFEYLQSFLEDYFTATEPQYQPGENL
Outline: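 Z′-LYTE FRET format with full-length active Fyn in 50 mM Hepes pH 7.5, 10 mM MgCl2, 1 mM EGTA, 0.01% Brij-35, 1% DMSO final; 60 minutes at 25° C. Percent phosphorylation from 0% and 100% phosphorylation controls; IC50 by non-linear curve fitting of percent inhibition.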

MMP13 = assay: Gene expression in rat articular chondrocytes under IL-1β stimulation, MMP13; format: cell-based; parameters: key to MMP13 gene expression, no effect: ne: no effect; details: 24 h
Outline: as §1

VEGFR2 = VEGFR2 (Homo sapiens (Human), UniProt P35968); assay: In vitro VEGFR2 kinase activity assay (Eurofins Cerep); format: biochemical; details: read-out: VEGFR2 KINASE INHIBITION IC50
Sequence of VEGFR2 (P35968 20-1356): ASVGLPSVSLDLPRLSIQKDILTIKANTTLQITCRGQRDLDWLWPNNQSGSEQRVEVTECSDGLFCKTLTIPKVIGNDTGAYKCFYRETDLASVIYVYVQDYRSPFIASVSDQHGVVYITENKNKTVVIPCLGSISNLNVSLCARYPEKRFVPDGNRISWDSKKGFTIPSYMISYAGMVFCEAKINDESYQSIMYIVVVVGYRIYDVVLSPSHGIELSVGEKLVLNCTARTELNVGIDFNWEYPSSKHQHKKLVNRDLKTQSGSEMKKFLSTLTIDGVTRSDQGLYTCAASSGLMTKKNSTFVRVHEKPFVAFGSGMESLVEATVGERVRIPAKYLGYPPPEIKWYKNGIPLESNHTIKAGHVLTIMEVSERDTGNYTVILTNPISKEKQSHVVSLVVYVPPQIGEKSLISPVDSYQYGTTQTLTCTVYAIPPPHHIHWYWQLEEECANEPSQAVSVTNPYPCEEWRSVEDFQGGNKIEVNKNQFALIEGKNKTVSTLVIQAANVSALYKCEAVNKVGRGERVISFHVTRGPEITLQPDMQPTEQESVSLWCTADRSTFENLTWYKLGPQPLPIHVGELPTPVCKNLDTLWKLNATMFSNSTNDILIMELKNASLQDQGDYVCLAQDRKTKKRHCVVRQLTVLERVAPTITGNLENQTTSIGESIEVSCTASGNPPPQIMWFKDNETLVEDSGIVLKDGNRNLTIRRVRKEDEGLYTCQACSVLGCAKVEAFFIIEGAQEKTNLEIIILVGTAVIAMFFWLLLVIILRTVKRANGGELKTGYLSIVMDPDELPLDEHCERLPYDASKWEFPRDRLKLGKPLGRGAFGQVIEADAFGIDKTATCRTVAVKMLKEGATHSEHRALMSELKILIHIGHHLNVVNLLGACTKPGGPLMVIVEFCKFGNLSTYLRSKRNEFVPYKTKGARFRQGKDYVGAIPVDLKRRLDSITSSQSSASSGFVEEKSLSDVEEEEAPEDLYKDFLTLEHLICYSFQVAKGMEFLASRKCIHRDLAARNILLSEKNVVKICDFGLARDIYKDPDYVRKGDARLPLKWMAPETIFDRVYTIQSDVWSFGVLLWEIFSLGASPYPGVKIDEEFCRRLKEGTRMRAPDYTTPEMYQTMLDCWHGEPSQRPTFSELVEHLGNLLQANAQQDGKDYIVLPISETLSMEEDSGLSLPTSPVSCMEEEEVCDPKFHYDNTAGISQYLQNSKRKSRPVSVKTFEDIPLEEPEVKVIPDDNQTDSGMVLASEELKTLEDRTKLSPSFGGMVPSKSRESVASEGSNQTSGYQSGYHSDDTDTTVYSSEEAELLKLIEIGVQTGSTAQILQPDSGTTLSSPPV
Outline: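 Contract biochemical kinase assay on human VEGFR2 with inhibitors at 10^−8 to 10^−5 M final (some re-tested from 10^−9 M). Activity expressed as percent of no-compound control; IC50 by non-linear regression of mean replicate inhibition curves.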

MMP3 = assay: Gene expression in rat articular chondrocytes under IL-1β stimulation, MMP3; format: cell-based; parameters: key to MMP3 gene expression, no effect: ne: no effect
Outline: as §1

[3] = test system: rat primary articular chondrocytes; assay: Toxicity analysis (MTT) in rat primary chondrocytes; details: for First toxic concentration at 24 h: rat primary chondrocytes
Description: as §2, §3

| SMILES | IC50 (Fyn) | IC50 (VEGFR2) | COX2 gene expression, percentage of inhibitory effect at the highest non toxic concentration (COX2; 10 μM) | IC50 (NF-kB; Mus musculus, JB6 Cl 41-5a) | IL-6 gene expression, percentage of inhibitory effect at the highest non toxic concentration (IL-6; 10 μM) | IL-1β gene expression, percentage of inhibitory effect at the highest non toxic concentration (IL-1β; 10 μM) | IC50 (ADAMTS-5) | First toxic concentration at 48 h in rat primary chondrocytes [3] | First toxic concentration at 24 h [3] | MMP13 gene expression, percentage of inhibitory effect at the highest non toxic concentration (MMP13; 10 μM) | MMP3 gene expression, percentage of inhibitory effect at the highest non toxic concentration (MMP3; 10 μM, 24 h) | IC50 (IL-1β) | further results |
| --- | --- | --- | --- | --- | --- | --- | --- | --- | --- | --- | --- | --- | --- |
| CC(=O)N1Cc2cnc(Nc3cc(CCc4cc(NC(=O)c5cccc(C(F)(F)F)c5)ccc4C)n[nH]3)cc2C1 [Compound 34, N-(3-(2-(5-((2-acetyl-2,3-dihydro-1H-pyrrolo[3,4-c]pyridin-6-yl)amino)-1H-pyrazol-3-yl)ethyl)-4-methylphenyl)-3-(trifluoromethyl) benzamide] | 6 nM | < 10 nM |  |  |  |  |  |  |  |  |  |  | COX2 gene expression, percentage of inhibitory effect at the highest non toxic concentration (COX2; 3 μM): 3 μM 76%; IC50 (NF-kB): 958 nM; IL-6 gene expression, percentage of inhibitory effect at the highest non toxic concentration (IL-6; 3 μM): 3 μM 100%; Bovine cartilage degradation induced by IL-1α, % inhibitory effect at max concentration ([1]; 1 μM): 96%; Inhibitory effect on the GAG release ([1]; at max concentration): 95-100%; IL-1β gene expression, percentage of inhibitory effect at the highest non toxic concentration (IL-1β; 3 μM): 3 μM 99%; First toxic concentration at 24 h [2]: 10 µM; First toxic concentration at 48 h in rat primary chondrocytes [2]: 3 µM; ADAMTS-5 gene expression, percentage of inhibitory effect at the highest non toxic concentration (ADAMTS-5; 3 μM): 3 μM 97%; MMP13 gene expression, percentage of inhibitory effect at the highest non toxic concentration (MMP13; 3 μM): 3 μM 82%; MMP3 gene expression, percentage of inhibitory effect at the highest non toxic concentration (MMP3; 3 μM, 24 h): 3 μM 58% |
| Cc1ccc(NC(=O)c2cccc(S(=O)(=O)C(C)C)c2)cc1CCc1cc(Nc2ncccc2C)[nH]n1 [Compound 35, 3-(isopropylsulfonyl)-N-(4-methyl-3-(2-(5-((3-methylpyridin-2-yl)amino)-1H-pyrazol-3-yl)ethyl)phenyl) benzamide] | 88 nM | < 10 nM | 10 μM 90% | 1310 nM | 10 μM 90% | 10 μM 74% | 3000 nM | >10 µM | >10 µM | 10 μM 88% | 10 μM 44% |  | IC50 ([1]; Bos taurus, head says nM, cells print μM, 48 h stimulation, read-out: Inhibitory effect on bovine cartilage degradation induced by IL-1α, IC50): 1500 nM |
| Cc1nc(C#N)cc(Nc2cc(CCc3cc(NC(=O)c4cccc(S(=O)(=O)N(C)C)c4)ccc3C)n[nH]2)n1 [Compound 37, N-(3-(2-(5-((6-cyano-2-methylpyrimidin-4-yl)amino)-1H-pyrazol-3-yl)ethyl)-4-methylphenyl)-3-(N,N-dimethylsulfamoyl)benzamide] | 24 nM | 35 nM | 10 μM 97% | 2260 nM | 10 μM 97% |  | 4000 nM | >10 µM | >10 µM | 10 μM 95% | 10 μM 59% | 1600 nM | inhibition at 10 µM ([1]; Bos taurus, 10 μM, read-out: Bovine cartilage degradation induced by IL-1α, % inhibitory effect at max concentration): 99% |
| Cc1ncc(Nc2cc(CCc3cc(NC(=O)c4cccc(C(F)(F)F)c4)ccc3F)n[nH]2)cn1 [Compound 40, N-(4-fluoro-3-(2-(5-((2-methylpyrimidin-5-yl)amino)-1H-pyrazol-3-yl)ethyl)phenyl)-3-(trifluoromethyl)benzamide] | 99 nM | < 10 nM | 10 μM 100% | 515 nM | 10 μM 100% | 10 μM 100% | 2300 nM | 10 µM | >10 µM | 10 μM 100% |  |  | inhibition at 3 µM ([1]; Bos taurus, 3 μM, read-out: Bovine cartilage degradation induced by IL-1α, % inhibitory effect at max concentration): 49%; IC50 (MMP3; Rattus norvegicus, Chondrocyte, 24 h incubation): 500 nM |
| Cc1ccc(NC(=O)c2cccc(S(C)(=O)=O)c2)cc1CCc1cnc(Nc2cnccn2)s1 [Compound 48, N-(4-methyl-3-(2-(2-(pyrazin-2-ylamino)thiazol-5-yl)ethyl)phenyl)-3-(methylsulfonyl)benzamide] | 27 nM | 10 nM |  | 275 nM |  |  |  | 3 µM | 3 µM |  |  | 600 nM | COX2 gene expression, no effect (COX2): ne; IC50 (IL-6; Rattus norvegicus, Chondrocyte, 6 h incubation): 200 nM; Bovine cartilage degradation induced by IL-1α, no effect [1]: ne; ADAMTS-5 gene expression, percentage of inhibitory effect at the highest non toxic concentration (ADAMTS-5; 1 μM): 1 μM 70%; MMP13 gene expression, no effect (MMP13): ne; MMP3 gene expression, no effect (MMP3; 24 h): ne |
